Key:
[1] = Solubility Test (shake flask at 37° C., HPLC); assay type: physicochemical; conditions: for solubility in The First Fluid: first fluid of disintegration test of Japanese Pharmacopoeia; for solubility in The First Fluid / solubility in water: shaken 125 strokes per minute, constant or maximum concentration over 0.5-20 hours
Method: Each crystal polymorph (0.4 g), which was prepared by the above method, was taken in 50 mL Erlenmeyer flask respectively, and to the mixture was added 20 mL of the mediums as defined below. The flask was shaken at 125 strokes per minute at 37° C. After 0.5, 1, 2 and 20 hours from the start of shaking, 1.5 mL of the suspension was filtered through a membrane filter (pore size: 0.2 μm). The concentration of the filtrate for each crystal polymorph was determined by HPLC method to determine the solubility. The concentration where the concentration became constant by the temporal measurements of the concentration was determined to be the solubility of each polymorph, and the results are shown in Table 1. […] In the cases of crystalline form F and amorphous form, since these samples were dissolved completely in each medium within 0.5 hours after the start of the test, additional samples were added appropriately to the test flasks at the point of 0.5 hours after the start and the solubility tests were continued. The mediums: water or the first fluid of disintegration test of Japanese Pharmacopoeia (hereinafter referred to as The First Fluid).

[2] = Chemical Stability Test (storage at 60° C. for 1 week, HPLC and appearance); assay type: physicochemical
Method: Crystalline form F obtained in Example 1 was stored at 60° C. for 1 week to investigate the chemical stability. As the chemical stability, the residual percentage of ethyl (−)-2-[4-[2-[[(1S,2R)-2-hydroxy-2-(4-hydroxyphenyl)-1-methylethyl]amino]ethyl]-2,5-dimethylphenoxy]-acetate was determined by HPLC, and the change in appearance was also observed.

Row | solubility in The First Fluid ([1]; hydrochloride) | solubility in water ([1]; hydrochloride) | solubility in The First Fluid relative to crystalline forms A and B and amorphous form ([1]; The First Fluid) | solubility in The First Fluid ([1]; hydrate) | solubility in water ([1]; hydrate) | appearance ([2]; after 1 week at 60° C.) | residual percentage (chemical purity %) ([2]; after 1 week at 60° C.) | appearance ([2]; at start) | residual percentage (chemical purity %) ([2]; at start) | changes in chemical purity and appearance ([2]; stored at 60° C. for 1 week) | SMILES
1 | 2.6 mg/mL | 17.8 mg/mL |  |  |  |  |  |  |  |  | CCOC(=O)COc1cc(C)c(CCN[C@@H](C)[C@H](O)c2ccc(O)cc2)cc1C.Cl [amorphous form, ethyl (−)-2-[4-[2-[[(1S,2R)-2-hydroxy-2-(4-hydroxyphenyl)-1-methylethyl]amino]ethyl]-2,5-dimethylphenoxy]acetate hydrochloride]
2 | 2.4 mg/mL | 10.7 mg/mL |  |  |  |  |  |  |  |  | CCOC(=O)COc1cc(C)c(CCN[C@@H](C)[C@H](O)c2ccc(O)cc2)cc1C.Cl [crystal form A, ethyl (−)-2-[4-[2-[[(1S,2R)-2-hydroxy-2-(4-hydroxyphenyl)-1-methylethyl]amino]-ethyl]-2,5-dimethylphenoxy]acetate hydrochloride]
3 | 2.9 mg/mL | 12.5 mg/mL |  |  |  |  |  |  |  |  | CCOC(=O)COc1cc(C)c(CCN[C@@H](C)[C@H](O)c2ccc(O)cc2)cc1C.Cl [crystal form B, ethyl (−)-2-[4-[2-[[(1S,2R)-2-hydroxy-2-(4-hydroxyphenyl)-1-methylethyl]amino]-ethyl]-2,5-dimethylphenoxy]acetate hydrochloride]
4 |  |  | about 5 times | 11.8 mg/mL | 24.3 mg/mL | white | 98.1% | white | 98.1% | no changes | CCOC(=O)COc1cc(C)c(CCN[C@@H](C)[C@H](O)c2ccc(O)cc2)cc1C.Cl [crystal form F, ethyl (−)-2-[4-[2-[[(1S,2R)-2-hydroxy-2-(4-hydroxyphenyl)-1-methylethyl]amino]ethyl]-2,5-dimethylphenoxy]acetate hydrochloride ¼ hydrate]

From US8003694B2, “Crystal of hydroxynorephedrin derivative hydrochloride ¼ hydrate” (Kissei Pharmaceutical Co., Ltd., priority 2005, dated 2011)
